Results on one substance are retold here after patent US7888331B2, “Ganglioside compositions and methods of use” (Seneb Biosciences, Inc., priority 2003, dated 2011).

The assay has as its system mouse cortical cells. As to the kind of experiment: Protection of cortical cells from apoptosis (hydrogen peroxide, MTT). The note with it: approx. 0.1 μM, 50 μM hydrogen peroxide. The assay is classed as cell-based. On the procedure: To induce apoptosis, mouse cortical cells were cultured and treated with 50 μM hydrogen peroxide for three hours prior to being treated with the ganglioside analogue. The cells were also treated with the hydrogen peroxide during treatment with the ganglioside analogue and post-treatment for 48 h. Cell death was assayed using the MTT assay.

For the substance LIGA-20, the “protection of the cells from apoptosis” value was “approximately 20%”.
